The source of these data is ChEMBL document CHEMBL1126867, “Antipicornavirus activity of tetrazole analogues related to disoxaril” (1993).

In brackets after ≈: the same amount, converted by molar mass. Activity calls are given as the source filed them. The rule behind the calls is not given here.

Experiment [1] concerns Human rhinovirus sp. Put plainly: In vitro antiviral activity against human rhinovirus 67 serotype. The class given is functional.
The test system of experiment [2] is Human rhinovirus sp. Put plainly: In vitro antiviral activity against human rhinovirus-30 serotype. The format is functional.
In experiment [3] the test system is Human rhinovirus sp. In words: In vitro antiviral activity against human rhinovirus 86 serotype. The class given is functional.
Experiment [4] concerns Human rhinovirus 1A. In words: (§1) In vitro antiviral activity against human rhinovirus 1A serotype. The format is functional.
The test system of experiment [5] is Human rhinovirus sp. In words: In vitro antiviral activity against human rhinovirus-21 serotype. The class given is functional.
The test system of experiment [6] is Human rhinovirus sp. In words: In vitro antiviral activity against human rhinovirus-41 serotype. The format is functional.
In experiment [7] the test system is Human rhinovirus sp. In words: In vitro antiviral activity against human rhinovirus 89 serotype. The format is functional.
The subject of experiment [8] is Human rhinovirus sp. In words: In vitro antiviral activity against human rhinovirus 50 serotype. The class given is functional.
The subject of experiment [9] is Human rhinovirus sp. In words: In vitro antiviral activity against human rhinovirus-22 serotype. The format is functional.
The subject of experiment [10] is Human rhinovirus sp. In words: In vitro antiviral activity against human rhinovirus 6 serotype. The class given is functional.
The subject of experiment [11] is Human rhinovirus sp. In words: In vitro antiviral activity against human rhinovirus-25 serotype. The class given is functional.
In experiment [12] the test system is Human rhinovirus sp. Put plainly: In vitro antiviral activity against human rhinovirus 2 serotype. The class given is functional.
The subject of experiment [13] is Human rhinovirus 1B (rhinovirus A). In words: In vitro antiviral activity against human rhinovirus 1B serotype.
Experiment [14] deals with Human rhinovirus sp. Put plainly: In vitro antiviral activity against human rhinovirus-15 serotype. The format is functional.
Experiment [15] deals with Human rhinovirus sp. In words: (§2) Minimum inhibitory concentration which inhibits 80% of serotypes was determined. The class given is functional.
In experiment [16] the test system is Human rhinovirus sp. Put plainly: In vitro antiviral activity against human rhinovirus 14 serotype. The class given is functional.
Experiment [17] has as its system Human rhinovirus 1A. Put plainly: In vitro antiviral activity against human rhinovirus-1A using plaque reduction assay. The class given is functional. (In general: Plaque reduction counts the foci of infection that form in a cell layer.)
The test system of experiment [18] is rhinovirus B14. In words: In vitro antiviral activity against human rhinovirus-14 using plaque reduction assay. The class given is functional, human rhinovirus type 14. The conditions noted are these: Rhinovirus B.
Experiment [19] has as its system rhinovirus B14. In words: In vitro antiviral activity against human rhinovirus-14 using plaque reduction assay; not active. The format is functional, organism-based. The conditions noted are these: human rhinovirus type 14.
For experiment [20], the system named is Human rhinovirus sp. Described as §1. The class given is functional.
Experiment [21] in a line: as §2. The conditions noted are these: Human rhinovirus sp. The class given is functional, human rhinovirus-1a, 14.
Experiment [22] relates to Human rhinovirus sp. Put plainly: In vitro antiviral activity against human rhinovirus 1B serotype. The format is functional.
Experiment [23] concerns Human rhinovirus 1A. Put plainly: In vitro antiviral activity against human rhinovirus-1A using plaque reduction assay; not active. The class given is functional, organism-based.

In the case of `Cc1cc(CCCCCOc2c(Cl)cc(C3=NCCO3)cc2Cl)on1` [WIN-54954], the MIC against Human rhinovirus sp. [1] turned out to be 0.18 µM (≈ 0.069 µg/mL); in the experiment with Human rhinovirus sp. [2], 0.09 µM (≈ 0.0345 µg/mL); in the experiment with Human rhinovirus sp. [3] it was 0.21 µM (≈ 0.0805 µg/mL); in the experiment with Human rhinovirus 1A [4], 2.51 µM (≈ 0.962 µg/mL); against Human rhinovirus sp. [5], 0.02 µM (≈ 0.00767 µg/mL); with Human rhinovirus sp. [6] it was 0.89 µM (≈ 0.341 µg/mL). Further, the MIC stood at 0.02 µM (≈ 0.00767 µg/mL) with Human rhinovirus sp. [7]; 0.3 µM (≈ 0.115 µg/mL) against Human rhinovirus sp. [8]; 0.02 µM (≈ 0.00767 µg/mL) in the experiment with Human rhinovirus sp. [9]; 0.23 µM (≈ 0.0882 µg/mL) in the experiment with Human rhinovirus sp. [10]; 0.29 µM (≈ 0.111 µg/mL) against Human rhinovirus sp. [11]; 0.02 µM (≈ 0.00767 µg/mL) in the experiment on Human rhinovirus sp. [12]. Moreover, the MIC came to 0.17 µM (≈ 0.0652 µg/mL) in [13], 0.41 µM (≈ 0.157 µg/mL) against Human rhinovirus sp. [14], 0.41 µM (≈ 0.157 µg/mL) against Human rhinovirus sp. [15] and 1.2 µM (≈ 0.46 µg/mL) against Human rhinovirus sp. [16].
For `CCCCc1cc(CCCOc2c(C)cc(-c3nnn(C)n3)cc2C)on1`, the MIC50 in the experiment with Human rhinovirus 1A [17] came out at 0.54 µM (≈ 0.2 µg/mL); against rhinovirus B14 [18], 0.11 µM (≈ 0.0406 µg/mL). Besides, the MIC80 against Human rhinovirus sp. [15] is 0.54 µM (≈ 0.2 µg/mL).
`CCCn1nnc(-c2cc(C)c(OCCCc3cc(C)no3)c(C)c2)n1`: the MIC50 was 6.5 µM (≈ 2.31 µg/mL) in the experiment on Human rhinovirus 1A [17] and 1.6 µM (≈ 0.569 µg/mL) against rhinovirus B14 [18]. The compound further registered an MIC80 against Human rhinovirus sp. [15] of 1.27 µM (≈ 0.451 µg/mL).
Take `CCCCn1nnc(-c2cc(C)c(OCCCc3cc(C)no3)c(C)c2)n1`: the MIC50 result with rhinovirus B14 [19] is “inactive”. Also, in the experiment on Human rhinovirus 1A [17], the MIC50 worked out at 6.5 µM (≈ 2.4 µg/mL).
For the compound `Cc1cc(-c2nnn(C)n2)cc(C)c1OCCCc1cc(CC(O)CO)no1` (stereo not drawn), the MIC50 entry with rhinovirus B14 [19] was “inactive”. In the experiment with Human rhinovirus 1A [17], this compound displayed an MIC50 of 0.67 µM (≈ 0.26 µg/mL).
For the compound `Cc1cc(-c2nnn(C)n2)cc(C)c1OCCCCCc1cc(COCCOCCOCCO)no1`, the MIC50 worked out at 4.9 µM (≈ 2.47 µg/mL) with Human rhinovirus 1A [17] and 1.05 µM (≈ 0.529 µg/mL) in the experiment with rhinovirus B14 [18].
Consider `CC(=O)c1cc(CCCOc2c(C)cc(-c3nnn(C)n3)cc2C)on1`, for which the MIC50 against Human rhinovirus 1A [17] came to 0.12 µM (≈ 0.0426 µg/mL); with rhinovirus B14 [18], 0.96 µM (≈ 0.341 µg/mL).
For `Cc1cc(CCCOc2c(C)cc(-c3nnn(C)n3)cc2C)on1`, the MIC in the experiment with Human rhinovirus sp. [1] was found to be 0.14 µM (≈ 0.0458 µg/mL); against Human rhinovirus sp. [2], 0.07 µM (≈ 0.0229 µg/mL); against Human rhinovirus sp. [3], 2.05 µM (≈ 0.671 µg/mL); with Human rhinovirus sp. [20], 0.11 µM (≈ 0.036 µg/mL); against Human rhinovirus sp. [5], 0.02 µM (≈ 0.00655 µg/mL); in the experiment on Human rhinovirus sp. [6], 0.4 µM (≈ 0.131 µg/mL). Besides, the MIC in the experiment with Human rhinovirus sp. [7] was found to be 0.01 µM (≈ 0.00327 µg/mL); in the experiment with Human rhinovirus sp. [8], 0.23 µM (≈ 0.0753 µg/mL); in the experiment with Human rhinovirus sp. [9] it was 0.05 µM (≈ 0.0164 µg/mL); in the experiment with Human rhinovirus sp. [10] it was 2.2 µM (≈ 0.72 µg/mL); in the experiment with Human rhinovirus sp. [11], 0.06 µM (≈ 0.0196 µg/mL); with Human rhinovirus sp. [12], 0.02 µM (≈ 0.00655 µg/mL). For the same compound, the MIC in the experiment on Human rhinovirus sp. [14] was determined as 0.18 µM (≈ 0.0589 µg/mL); against Human rhinovirus sp. [22], 0.03 µM (≈ 0.00982 µg/mL); with Human rhinovirus sp. [15], 0.4 µM (≈ 0.131 µg/mL); in the experiment on Human rhinovirus sp. [16], 1.7 µM (≈ 0.557 µg/mL). The MIC50 in the experiment with Human rhinovirus 1A [17] was determined as 0.11 µM (≈ 0.036 µg/mL); with rhinovirus B14 [18], 1.74 µM (≈ 0.57 µg/mL). Also, the MIC80 in experiment [21] was found to be 0.4 µM (≈ 0.131 µg/mL).
In the case of `Cc1cc(COc2c(C)cc(-c3nnn(C)n3)cc2C)on1`, the MIC50 entry with rhinovirus B14 [19] and in the experiment with Human rhinovirus 1A [23] was “inactive” throughout.
In the case of `COCCOCOCc1cc(CCCCCOc2c(C)cc(-c3nnn(C)n3)cc2C)on1`, the MIC50 worked out at 2.89 µM (≈ 1.33 µg/mL) against Human rhinovirus 1A [17] and 0.33 µM (≈ 0.152 µg/mL) in the experiment with rhinovirus B14 [18].
Consider `Cc1cc(-c2nnn(C)n2)cc(C)c1OCCCc1cc(C(C)O)no1` (stereo not drawn), for which the MIC50 in the experiment with Human rhinovirus 1A [17] was determined as 0.14 µM (≈ 0.05 µg/mL); against rhinovirus B14 [18], 1.4 µM (≈ 0.5 µg/mL). The same compound registered an MIC80 in the experiment with Human rhinovirus sp. [15] of 1.1 µM (≈ 0.393 µg/mL).
As to `CCCOc1cc(CCCOc2c(C)cc(-c3nnn(C)n3)cc2C)on1`, the MIC50 in the experiment with Human rhinovirus 1A [17] is 0.39 µM (≈ 0.145 µg/mL); with rhinovirus B14 [18] it was 0.08 µM (≈ 0.0297 µg/mL). In addition, the MIC80 against Human rhinovirus sp. [15] worked out at 0.6 µM (≈ 0.223 µg/mL).
Consider `Cc1cc(CCCCCOc2c(C)cc(-c3nnn(C)n3)cc2C)on1`, for which the MIC50 amounted to 0.34 µM (≈ 0.121 µg/mL) against Human rhinovirus 1A [17] and 0.45 µM (≈ 0.16 µg/mL) in the experiment on rhinovirus B14 [18]. In the experiment with Human rhinovirus sp. [15], this compound yielded an MIC80 of 0.39 µM (≈ 0.139 µg/mL).
Regarding `Cc1cc(-c2nnn(C)n2)cc(C)c1OCCCCCc1cc(CO)no1`, the MIC50 worked out at 0.18 µM (≈ 0.0669 µg/mL) in the experiment on Human rhinovirus 1A [17] and 0.62 µM (≈ 0.23 µg/mL) against rhinovirus B14 [18]. The compound further displayed an MIC80 in the experiment on Human rhinovirus sp. [15] of 1.59 µM (≈ 0.591 µg/mL).
As to `Cc1cc(CCCCCOc2c(C)cc(-c3nnn(CCO)n3)cc2C)on1`, in the experiment with Human rhinovirus 1A [23], the MIC50 result was “inactive”. The MIC50 in the experiment on rhinovirus B14 [18] stood at 4.35 µM (≈ 1.68 µg/mL).
As for `Cc1cc(CCCCCCCOc2c(C)cc(-c3nnn(C)n3)cc2C)on1`, the values for the MIC50 in the experiment with Human rhinovirus 1A [17] and in the experiment on rhinovirus B14 [18] were 0.76 µM (≈ 0.291 µg/mL) and 3 µM (≈ 1.15 µg/mL), respectively. This compound gave an MIC80 against Human rhinovirus sp. [15] of 1.6 µM (≈ 0.614 µg/mL).
The like results for `Cc1cc(CCCCOc2c(C)cc(-c3nnn(C)n3)cc2C)on1` were, in that order, 0.1 µM (≈ 0.0341 µg/mL), 2.43 µM (≈ 0.83 µg/mL) and 0.66 µM (≈ 0.225 µg/mL).
For `Cc1cc(-c2nnn(C)n2)cc(C)c1OCCCc1cc(CC(C)O)no1` (stereo not drawn), the MIC50 is 0.71 µM (≈ 0.264 µg/mL) against Human rhinovirus 1A [17] and 1.8 µM (≈ 0.669 µg/mL) in the experiment with rhinovirus B14 [18].
Take `Cc1cc(-c2nnn(C)n2)cc(C)c1OCCCc1cc(CCCO)no1`: the MIC50 was determined as 0.2 µM (≈ 0.0743 µg/mL) in the experiment on Human rhinovirus 1A [17] and 0.17 µM (≈ 0.0631 µg/mL) against rhinovirus B14 [18]. The compound further came in with an MIC80 in the experiment on Human rhinovirus sp. [15] of 0.4 µM (≈ 0.149 µg/mL).
